Test results from article PMC12189671, “Antioxidant Activity and Cytotoxicity Evaluation of New Catechol Hydrazinyl-Thiazole Derivatives as Potential Protectors in Retinal Degenerative Processes” (Antioxidants, 2025).

Tests used:
[1] = Ferric Reducing Antioxidant Potential (FRAP) assay; conditions: molar equivalents of reference compound
Description: The results of the evaluation of the electron ability transfer of the tested compound were expressed as molar equivalents of the reference compound per one mol of the tested compound using the formula: % of control activity=sample absorbance/reference absorbance×100 The Ferric Reducing Antioxidant Potential (FRAP) assay measures the ability of an antioxidant to transfer an electron to Fe^3+, converting it to Fe^2+. […] The solutions were thoroughly mixed in the dark, and their absorbance was measured spectrophotometrically at λ = 593 nm.

[2] = Ferrous ions chelation assay (ferrozine)
Description: Solutions of the tested compounds or ethylenediaminetetraacetic acid disodium salt (EDTA-Na2), used as a positive control, were thoroughly mixed with 0.5 mL of FeSO4 (0.125 mM) and 0.5 mL of ferrozine (0.315 mM). After a 10-min incubation in the dark at room temperature, the absorbance was measured at λ = 562 nm.

[3] = Cell viability (resazurin) on A549; format: cell-based; conditions: human, A549 cells; for IC50 at 24 h: A549, 24 h, read-out: 24 h Exposure IC50 (cytotoxicity); for IC50 at 48 h: A549, 48 h, read-out: 48 h Exposure IC50 (cytotoxicity)
Description: (§1) The ARPE-19 cell line was purchased from CLS Cell Lines Service GmbH (Eppelheim, Germany) and cultured in Dulbecco’s modified Eagle’s medium/F-12 (HAM) 1:1 (Biological Industries, Beit, Israel). The medium was supplemented with 10% fetal bovine serum (FBS) (Thermo Fisher Scientific, Waltham, MA, USA) and 1% penicillin-streptomycin (Biosera, Cholet, France). The cancerous cell line A549 was purchased from ATCC (Manassas, VA, USA) and cultivated in high-glucose Dulbecco’s modified Eagle’s medium (DMEM 4.5 g/L). The normal BJ cell line was also purchased from ATCC (Manassas, VA, USA) and was cultivated in low-glucose Dulbecco’s modified Eagle’s medium (DMEM 1 g/L). The media was supplemented in both cases with 10% FBS. Cells were cultured in T75 flasks and incubated at 37 °C in a humidified incubator with 5% CO2 supplementation. For maintenance, the media was changed every 2–3 days, and when the confluence of the flask reached approximately 85%, the cells were either subcultured or further used in the experiments.
(§2) ARPE-19 cells were seeded at a density of 2 × 10^4 cells/well and 1 × 10^4 cells/well (suspended in 100 µL) in 96-well plates for 24 h and 48 h, respectively. For the BJ cells, the seeding density was 0.5 × 10^4 cells/well and 0.3 × 10^4 cells/well for 24 h and 48 h, respectively, and for the A549 cells, 1.5 × 10^4 cells/well for 24 h and 0.75 × 10^4 cells/well for 48 h. As cells have different sizes and volumes, the different seeding densities were selected to reach a confluency of 80–90% by the end of the experiments. Cells were further exposed to the synthesized compounds for 24/48 h at concentrations ranging from 12.5 to 500 µM. After the incubation period, the exposure media was removed, the cells were washed with PBS, and further incubated with a 200 µM resazurin solution for 3 h as described in our previous report. The conversion of resazurin to the fluorescent resorufin compound by viable cells was measured at λexcitation = 550; λemission = 600, using SpectraMax iD3 (Molecular Devices, San Jose, CA, USA). The experiments were conducted in biological triplicate, each with a minimum of 3 technical replicates. The measured viability was expressed as relative values to the control (cells exposed only to the vehicle–culture medium containing 0.4% DMSO).

[4] = Cell viability (resazurin) on BJ; format: cell-based; conditions: human, BJ cells; for IC50 at 24 h: read-out: 24 h Exposure IC50 (cytotoxicity); for IC50 at 48 h: read-out: 48 h Exposure IC50 (cytotoxicity)
Description: as §1, §2

[5] = Cell viability (resazurin) on ARPE-19; format: cell-based, human; conditions: human, ARPE-19 cells; for IC50 at 24 h: ARPE-19, 24 h, read-out: 24 h Exposure IC50 (cytotoxicity); for IC50 at 48 h: ARPE-19, 48 h, read-out: 48 h Exposure IC50 (cytotoxicity)
Description: as §1, §2

[6] = Total Antioxidant Capacity (TAC) assay; conditions: molar equivalents of reference compound
Description: The results of the evaluation of the electron ability transfer of the tested compound were expressed as molar equivalents of the reference compound per one mol of the tested compound using the formula: % of control activity=sample absorbance/reference absorbance×100 The Total Antioxidant Capacity (TAC) assay operates on the principle of reducing molybdenum (VI) to molybdenum (V) by the antioxidants being assessed, resulting in the formation of a blue-green complex. This assay was performed following the methodology detailed in our previous publication, which was based on initial reports from the literature. […] These were then incubated in a water bath at 95 °C for 90 min. After cooling to room temperature, 1 mL of each solution was diluted with 1 mL of water. The absorbance of the solutions was subsequently measured at λ = 695 nm.

Row | Structure (SMILES) | FRAP Eq Trolox [1] [Eq Trolox] | % of ferrous ions chelation ([2]; 50 nM) | % of ferrous ions chelation ([2]; 100 nM) | % of ferrous ions chelation ([2]; 150 nM) | % of ferrous ions chelation ([2]; 175 nM) | % of ferrous ions chelation ([2]; 200 nM) | IC50 at 24 h [3] [µM] | IC50 at 48 h [3] [µM] | IC50 at 24 h [4] [µM] | IC50 at 48 h [4] [µM] | IC50 at 24 h [5] [µM] | IC50 at 48 h [5] [µM] | TAC Eq Ascorbic Acid [6] [Eq Ascorbic Acid] | viability at 24 h, 12.5 µM ([5]; ARPE-19, 24-h exposure, 12.5 µM, read-out: cell viability (% of control)) [%]
1 | C/C=C/C=N/Nc1nc(-c2ccc(O)c(O)c2)cs1.Cl [Compound 5a, 4-(2-(2-((1E,2E)-but-2-en-1-ylidene)hydrazineyl)thiazol-4-yl)benzene-1,2-diol hydrochloride] | 1.49 | − (less than 5% chelation activity) | − (less than 5% chelation activity) | − (less than 5% chelation activity) | − (less than 5% chelation activity) | − (less than 5% chelation activity) | 147 | 109 | 144 | 162 | 90.1 | 92.7 | 2.82 | –
2 | CC1=C(/C=C/C(C)=N/Nc2nc(-c3ccc(O)c(O)c3)cs2)C(C)(C)CCC1.Cl [Compound 5b, 4-(2-(2-((2E,3E)-4-(2,6,6-trimethylcyclohex-1-en-1-yl)but-3-en-2-ylidene) hydrazineyl)thiazol-4-yl)benzene-1,2-diol hydrochloride] | 1.39 | − (less than 5% chelation activity) | − (less than 5% chelation activity) | − (less than 5% chelation activity) | − (less than 5% chelation activity) | − (less than 5% chelation activity) | 167 | 39.6 | 141 | 152 | 31.5 | 52.1 | 2.56 | 63.5
